Test systems include SNB-75 CNS; SK-OV-3 ovarian; RPMI-8226 leukemia; HT29 colon; SF-539 CNS; HCT-15 colon; SK-MEL-2 melanoma; SF-295 CNS; ACHN renal; SNB-19 CNS.
Common to all, as to assay: inhibition of tumour cell growth, NCI panel, 48 h

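96-well plates; 48 h exposure; 5 concentrations. Endpoints by linear interpolation between flanking doses. Not reached: highest tested concentration assigned. GI50 is the concentration that inhibits growth by half. The concentration for full growth arrest is given as TGI.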

For the molecule `C=C(CN(C)C)C(=O)c1cc(C)ccc1C`, the TGI in the experiment on SNB-75 CNS is 43.4 µM; in the experiment on SK-OV-3 ovarian it was 33 µM; in the experiment on RPMI-8226 leukemia, 5.34 µM; in the experiment with HT29 colon it was 29.3 µM; in the experiment with SF-539 CNS, 19.2 µM; with HCT-15 colon, 10.6 µM. Further, the TGI stood at 37.8 µM in the experiment on SK-MEL-2 melanoma, 34.1 µM with SF-295 CNS, 11.8 µM in the experiment on ACHN renal and 39.2 µM in the experiment with SNB-19 CNS.
Consider `COc1ccc2c[n+](C)c3c4cc(OC)c(OC)cc4ccc3c2c1`, for which the TGI with SNB-75 CNS is 15.7 µM; with SK-OV-3 ovarian, 14.7 µM; in the experiment with RPMI-8226 leukemia, 16.1 µM; in the experiment on HT29 colon it was 23.1 µM; in the experiment with SF-539 CNS, 24.9 µM; in the experiment on HCT-15 colon, > 70.4 µM. The TGI in the experiment with SK-MEL-2 melanoma is 27.7 µM; with SF-295 CNS, 34.8 µM; in the experiment on ACHN renal, > 92.5 µM; in the experiment with SNB-19 CNS it was 12 µM.
As to `O=C(N1CCC(CN=c2cc3n(-c4ccc(Cl)cc4)c4ccccc4nc-3cc2Nc2ccc(Cl)cc2)CC1)N1CC1`, the GI50 is 2.25 µM with SK-OV-3 ovarian; 0.204 µM with HT29 colon; 1.63 µM with SF-539 CNS; 0.512 µM in the experiment on HCT-15 colon; 0.632 µM in the experiment on SK-MEL-2 melanoma; 1.63 µM in the experiment with ACHN renal. Besides, the TGI with SK-OV-3 ovarian stood at 4.64 µM; in the experiment on HT29 colon it was 0.547 µM; in the experiment on SF-539 CNS, 3.13 µM; with HCT-15 colon it was 1.87 µM; in the experiment with SK-MEL-2 melanoma it was 2.04 µM; with ACHN renal, 3.21 µM.
Take `COc1cccc(C2C(C(=O)O)=C(CO)Oc3cc4c(cc32)OCO4)c1` (stereo not given): the TGI with SNB-75 CNS, in the experiment on SK-OV-3 ovarian, in the experiment on RPMI-8226 leukemia, in the experiment on HT29 colon, in the experiment with SF-539 CNS and in the experiment with HCT-15 colon was > 100 µM in each case. In addition, the TGI in the experiment on SK-MEL-2 melanoma, in the experiment on SF-295 CNS, in the experiment with ACHN renal and with SNB-19 CNS was > 100 µM each time.
As to `CC(=O)[O-].CC(=O)[O-].O=C(N/N=C/c1cc(Cl)cc(Cl)c1[OH2+])c1ccncc1.[Zn+2]`, the TGI in the experiment on SNB-75 CNS, in the experiment on SK-OV-3 ovarian, with RPMI-8226 leukemia, in the experiment with SF-539 CNS, in the experiment on HCT-15 colon and in the experiment on SF-295 CNS was > 100 µM in each case. The TGI in the experiment on ACHN renal and with SNB-19 CNS was > 100 µM throughout.
As to `CCN(CC)CCC(=O)c1ccccc1`, the TGI is 38.8 µM in the experiment on SNB-75 CNS; 15.6 µM with RPMI-8226 leukemia; 70.2 µM in the experiment on HT29 colon; 44.2 µM with SF-539 CNS; 38.5 µM with HCT-15 colon; > 100 µM in the experiment with SK-MEL-2 melanoma. The TGI in the experiment on ACHN renal is 29.7 µM; in the experiment with SNB-19 CNS it was > 100 µM.
For `CCOC(=O)C1(C(=O)OCC)CSC1`, the TGI in the experiment on SNB-75 CNS, with SK-OV-3 ovarian, in the experiment on HT29 colon, in the experiment with HCT-15 colon, with SF-295 CNS and in the experiment on ACHN renal was > 100 µM throughout. Moreover, the TGI with SNB-19 CNS was > 100 µM.
For `CCSc1nc(N2CCCCC2)c2cn[nH]c2n1`, the GI50 in the experiment with SNB-75 CNS was 74.9 µM; in the experiment on SK-OV-3 ovarian, > 100 µM; with RPMI-8226 leukemia it was 28 µM; in the experiment on HT29 colon, 66.3 µM; in the experiment with SF-539 CNS it was 12.4 µM; with HCT-15 colon, > 100 µM. In addition, the GI50 in the experiment with SK-MEL-2 melanoma is 39.8 µM; in the experiment with SF-295 CNS, 48.2 µM; with ACHN renal, 41.2 µM; with SNB-19 CNS it was 45.6 µM. For the same molecule, the TGI is > 100 µM in the experiment with SNB-75 CNS; > 100 µM in the experiment on SK-OV-3 ovarian; > 100 µM with RPMI-8226 leukemia; > 100 µM with HT29 colon; 48.3 µM in the experiment on SF-539 CNS; > 100 µM in the experiment on HCT-15 colon. Further, the TGI in the experiment on SK-MEL-2 melanoma, in the experiment with SF-295 CNS, in the experiment on ACHN renal and in the experiment with SNB-19 CNS was > 100 µM each time.
Regarding `c1ccc(SC(Sc2ccccc2)c2ccc3c(c2)OCO3)cc1`, the TGI with HT29 colon, in the experiment with HCT-15 colon, with SK-MEL-2 melanoma, in the experiment with SF-295 CNS, in the experiment on ACHN renal and in the experiment with SNB-19 CNS was > 100 µM each time.
Turning to `CCOc1ccc(N=Nc2ccc3oc(=O)c(/C(C)=N\NC(=O)CC(=O)Nc4ccc(Cl)cc4)cc3c2)cc1`, the TGI turned out to be 41.8 µM in the experiment with SK-OV-3 ovarian; 64.7 µM with RPMI-8226 leukemia; 33.5 µM in the experiment on SF-539 CNS; 26.4 µM in the experiment with HCT-15 colon; 9.32 µM with SK-MEL-2 melanoma; 34.3 µM in the experiment with SF-295 CNS. Further, the TGI with ACHN renal is 97.6 µM; in the experiment on SNB-19 CNS it was > 100 µM.
`COC(=O)C1=COC2OC3/C(=C\c4ccc(O)c(OC)c4)C(=O)OC34C=CC1C24` (stereo not given): the TGI in the experiment on SNB-75 CNS is 25.2 µM; in the experiment on SK-OV-3 ovarian it was 31 µM; in the experiment with RPMI-8226 leukemia it was > 100 µM; with HT29 colon, 33.5 µM; with SF-539 CNS, 31.2 µM; in the experiment with HCT-15 colon, 27.7 µM. Besides, the TGI in the experiment with SK-MEL-2 melanoma is 23.7 µM; in the experiment with SF-295 CNS, 32.5 µM; in the experiment on ACHN renal, 28.3 µM; with SNB-19 CNS it was 35.3 µM.
Consider `CC(=O)[O-].[Ni].c1ccc(/C(=N\Nc2ccccn2)c2ccccn2)cc1`, for which the TGI in the experiment on SNB-75 CNS amounted to 46.1 µM; in the experiment on SK-OV-3 ovarian it was 43.2 µM; in the experiment with RPMI-8226 leukemia, 16.3 µM; with HT29 colon it was 23.8 µM; with SF-539 CNS, 24.7 µM; in the experiment with HCT-15 colon, 41.1 µM. Also, the TGI stood at 24.9 µM in the experiment on SK-MEL-2 melanoma, 26.8 µM with SF-295 CNS, 53 µM with ACHN renal and 54 µM with SNB-19 CNS. Further, the GI50 in the experiment with HT29 colon was 0.056 µM.
Consider `O=C(O)c1cncc(C(=O)O)c1`, for which the TGI with SNB-75 CNS, in the experiment with SK-OV-3 ovarian, in the experiment with RPMI-8226 leukemia, in the experiment with HT29 colon, in the experiment on SF-539 CNS and in the experiment on HCT-15 colon was > 100 µM throughout. The TGI in the experiment on SK-MEL-2 melanoma, in the experiment with SF-295 CNS, in the experiment on ACHN renal and in the experiment on SNB-19 CNS was > 100 µM in each case.
`COc1ccc2c(c1)O[C@H]1c3ccc(O)cc3OC[C@@H]21`: the TGI in the experiment with SNB-75 CNS was 47.1 µM; in the experiment with SK-OV-3 ovarian, 98.9 µM; in the experiment with RPMI-8226 leukemia, 89 µM; with HT29 colon it was > 100 µM; in the experiment with SF-539 CNS, 49.9 µM; with HCT-15 colon, > 100 µM. Further, the TGI with SK-MEL-2 melanoma was 72.7 µM; in the experiment with SF-295 CNS, > 100 µM; with ACHN renal, 81.4 µM; in the experiment with SNB-19 CNS it was > 100 µM.
Regarding `O=c1[nH]cc(N(CCCl)CCCl)c(=O)[nH]1`, the TGI in the experiment with SNB-75 CNS came out at 162 µM; in the experiment on SK-OV-3 ovarian, 183 µM; with RPMI-8226 leukemia it was 284 µM; in the experiment with HT29 colon, 306 µM; with SF-539 CNS, 60.5 µM; with HCT-15 colon, 251 µM. Also, the TGI in the experiment with SK-MEL-2 melanoma was found to be 204 µM; in the experiment with SF-295 CNS, 246 µM; in the experiment with ACHN renal, 92.6 µM; in the experiment on SNB-19 CNS, 400 µM.

The values above are taken from PubChem BioAssay (NCI).
